Source: patent US11046649B2, “Compounds useful as inhibitors of indoleamine 2,3-dioxygenase and/or tryptophan dioxygenase” (Board of Regents, The University of Texas System, priority 2018, dated 2021)

These molecules were tested against T1, IDO1 (Homo sapiens, UniProt P14902) (assay: IDO1 cell-based assay). Settings: HeLa cells, 10 ng/mL IFNgamma, 24 hours with test compound; N-Formyl Kynurenine and L-tryptophan quantified by RFMS.
T1 construct: endogenous in cells; host or cells: HeLa cells (ATCC), IDO1 induced with 10 ng/mL IFNgamma
T1 sequence (P14902 whole entry): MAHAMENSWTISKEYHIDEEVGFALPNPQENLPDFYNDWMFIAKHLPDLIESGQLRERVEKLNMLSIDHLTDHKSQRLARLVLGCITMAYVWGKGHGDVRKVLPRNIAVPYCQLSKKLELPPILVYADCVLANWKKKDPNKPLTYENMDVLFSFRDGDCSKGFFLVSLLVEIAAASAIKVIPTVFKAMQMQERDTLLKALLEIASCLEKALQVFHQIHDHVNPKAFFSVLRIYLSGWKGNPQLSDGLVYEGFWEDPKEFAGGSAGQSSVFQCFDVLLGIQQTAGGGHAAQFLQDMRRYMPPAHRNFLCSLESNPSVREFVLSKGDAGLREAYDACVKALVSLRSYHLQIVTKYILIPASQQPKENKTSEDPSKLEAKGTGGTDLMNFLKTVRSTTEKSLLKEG

Row | Structure (SMILES) | IC50 [nM]
1 | C[C@H](C(=O)Nc1ccc(-c2ccc(C#N)nc2)cc1)[C@H]1[C@@H]2C[C@@H](n3cnc4cc(F)c(F)cc43)C[C@@H]21 [Example 79, (S)-N-(4-(6-cyanopyridin-3-yl)phenyl)-2-((1R,3R,5S,6r)-3-(5,6-difluoro-1H-benzo[d]-imidazol-1-yl)bicyclo-[3.1.0]hexan-6-yl)-propanamide] | 878
2 | CC(C(=O)Nc1cnn(C)c1)[C@H]1[C@@H]2C[C@@H](n3cnc4cc(F)c(F)cc43)C[C@@H]21 (stereo partly drawn) [Example 31, 2-((1R,3s,5S,6r)-3-(5,6-difluoro-1H-benzo[d]-imidazol-1-yl)bicyclo-[3.1.0]hexan-6-yl)-N-(1-methyl-1H-pyrazol-4-yl)-propanamide] | 141
3 | CC(C(=O)Nc1cnc2ccccn12)[C@H]1[C@@H]2C[C@@H](n3cnc4cc(F)c(F)cc43)C[C@@H]21 (stereo partly drawn) [Example 50, 2-((1R,3s,5S,6r)-3-(5,6-difluoro-1H-benzo[d]-imidazol-1-yl)bicyclo-[3.1.0]hexan-6-yl)-N-(imidazo[1,2-a]pyridin-3-yl)propanamide] | 495
4 | CC(C(=O)NC12CC(NC(=O)CO)(C1)C2)[C@H]1[C@@H]2C[C@@H](Oc3ccnc4ccc(F)cc34)C[C@@H]21 (stereo partly drawn) [Example 129, 2-((1R,3s,5S,6r)-3-((6-fluoroquinolin-4-yl)oxy)-bicyclo[3.1.0]hexan-6-yl)-N-(3-(2-hydroxy-acetamido)bicyclo-[1.1.1]pentan-1-yl)-propanamide] | 597
5 | COc1ccc(-c2ccc(NC(=O)[C@@H](C)[C@H]3[C@@H]4C[C@@H](n5cnc6cc(F)c(F)cc65)C[C@@H]43)cc2)cn1 [Example 6, (S)-2-((1R,3R,5S,6r)-3-(5,6-difluoro-1H-benzo[d]imidazol-1-yl)bicyclo[3.1.0]hexan-6-yl)-N-(4-(6-methoxypyridin-3-yl)phenyl)propanamide] | 329
6 | CC(C(=O)Nc1cc(C(F)(F)F)nn1C)[C@H]1[C@@H]2C[C@@H](n3cnc4cc(F)c(F)cc43)C[C@@H]21 (stereo partly drawn) [Example 55, 2-((1R,3s,5S,6r)-3-(5,6-difluoro-1H-benzo[d]-imidazol-1-yl)bicyclo-[3.1.0]hexan-6-yl)-N-(1-methyl-3-(trifluoromethyl)-1H-pyrazol-5-yl)-propanamide] | 275
7 | C[C@H](C(=O)Nc1ccc(-c2ccc(C#N)cn2)cc1)[C@H]1[C@@H]2C[C@@H](n3cnc4cc(F)c(F)cc43)C[C@@H]21 [Example 83, (S)-N-(4-(5-cyanopyridin-2-yl)phenyl)-2-((1R,3R,5S,6r)-3-(5,6-difluoro-1H-benzo[d]-imidazol-1-yl)bicyclo-[3.1.0]hexan-6-yl)-propanamide] | 845
8 | C[C@H](C(=O)Nc1ccc(-c2ccc(C(F)(F)F)nc2)cc1)[C@H]1[C@@H]2C[C@@H](n3cnc4cc(F)c(F)cc43)C[C@@H]21 [Example 86, (S)-2-((1R,3R,5S,6r)-3-(5,6-difluoro-1H-benzo[d]-imidazol-1-yl)bicyclo-[3.1.0]hexan-6-yl)-N-(4-(6-(trifluoromethyl)pyridin-3-yl)phenyl)propanamide] | 568
9 | C[C@H](C(=O)Nc1ccc(-c2cnn(C)c2)cc1)[C@H]1[C@@H]2C[C@@H](n3cnc4cc(F)c(F)cc43)C[C@@H]21 [Example 65, (S)-2-((1R,3R,5S,6r)-3-(5,6-difluoro-1H-benzo[d]-imidazol-1-yl)-bicyclo[3.1.0]hexan-6-yl)-N-(4-(1-methyl-1H-pyrazol-4-yl)phenyl)-propanamide] | 170
10 | CC(C(=O)Nc1cnc(Br)cn1)[C@H]1[C@@H]2C[C@@H](n3cnc4cc(F)c(F)cc43)C[C@@H]21 (stereo partly drawn) [Example 57, N-(5-bromopyrazin-2-yl)-2-((1R,3s,5S,6r)-3-(5,6-difluoro-1H-benzo[d]-imidazol-1-yl)bicyclo-[3.1.0]hexan-6-yl)-propanamide] | 2.4
11 | CC(c1nc2cc(C(F)(F)F)ccc2[nH]1)[C@H]1[C@@H]2C[C@@H](Oc3ccnc4ccc(F)cc34)C[C@@H]21 (stereo partly drawn) [Example 137, 6-fluoro-4-(((1R,3s,5S,6r)-6-(1-(5-(trifluoromethyl)-1H-benzo[d]imidazol-2-yl)-ethyl)bicyclo[3.1.0]hexan-3-yl)oxy)quinoline] | 1.2
12 | C[C@H](C(=O)Nc1ccc(-c2cnn(CC(=O)O)c2)cc1)[C@H]1[C@@H]2C[C@@H](n3cnc4cc(F)c(F)cc43)C[C@@H]21 [Example 69, 2-(4-(4-((S)-2-((1R,3R,5S,6r)-3-(5,6-difluoro-1H-benzo[d]-imidazol-1-yl)bicyclo-[3.1.0]hexan-6-yl)-propanamido)phenyl)-1H-pyrazol-1-yl)acetic acid] | 5550
13 | C[C@H](C(=O)Nc1ccc(-c2ccc(F)cn2)cc1)[C@H]1[C@@H]2C[C@@H](n3cnc4cc(F)c(F)cc43)C[C@@H]21 [Example 85, (S)-2-((1R,3R,5S,6r)-3-(5,6-difluoro-1H-benzo[d]-imidazol-1-yl)bicyclo-[3.1.0]hexan-6-yl)-N-(4-(5-fluoropyridin-2-yl)phenyl)-propanamide] | 1910
14 | Cc1ccc(-c2ccc(NC(=O)[C@@H](C)[C@H]3[C@@H]4C[C@@H](n5cnc6cc(F)c(F)cc65)C[C@@H]43)cc2)cn1 [Example 67, (S)-2-((1R,3R,5S,6r)-3-(5,6-difluoro-1H-benzo[d]-imidazol-1-yl)-bicyclo[3.1.0]hexan-6-yl)-N-(4-(6-methylpyridin-3-yl)phenyl)propanamide] | 261
15 | CC(C(=O)Nc1ccc(F)cn1)[C@H]1[C@@H]2C[C@@H](n3cnc4cc(F)c(F)cc43)C[C@@H]21 (stereo partly drawn) [Example 4, 2-((1R,3s,5S,6r)-3-(5,6-difluoro-1H-benzo[d]imidazol-1-yl)bicyclo[3.1.0]hexan-6-yl)-N-(5-fluoropyridin-2-yl)propanamide] | 5.1
16 | CC(C(=O)Nc1ccc(C#N)nn1)[C@H]1[C@@H]2C[C@@H](Oc3ccnc4ccc(F)cc34)C[C@@H]21 (stereo partly drawn) [Example 76, N-(6-cyanopyridazin-3-yl)-2-((1R,3s,5S,6r)-3-((6-fluoroquinolin-4-yl)oxy)-bicyclo[3.1.0]hexan-6-yl)-propanamide] | 4.6
17 | CC(C(=O)Nc1nnc(C(F)(F)F)[nH]1)[C@H]1[C@@H]2C[C@@H](Oc3ccnc4ccc(F)cc34)C[C@@H]21 (stereo partly drawn) [Example 74, 2-((1R,3s,5S,6r)-3-((6-fluoroquinolin-4-yl)oxy)-bicyclo[3.1.0]hexan-6-yl)-N-(5-(trifluoromethyl)-4H-1,2,4-triazol-3-yl)-propanamide] | 156
18 | CCC(C(=O)Nc1cnc(C)cn1)[C@H]1[C@@H]2C[C@@H](Oc3ccnc4ccc(F)cc34)C[C@@H]21 (stereo partly drawn) [Example 120, 2-((1R,3s,5S,6r)-3-((6-fluoroquinolin-4-yl)oxy)-bicyclo[3.1.0]hexan-6-yl)-N-(5-methylpyrazin-2-yl)-butanamide] | 1.43
19 | CC(C(=O)NC12CC(F)(C1)C2)[C@H]1[C@@H]2C[C@@H](n3cnc4cc(F)c(F)cc43)C[C@@H]21 (stereo partly drawn) [Example 28, 2-((1R,3s,5S,6r)-3-(5,6-difluoro-1H-benzo[d]-imidazol-1-yl)bicyclo-[3.1.0]hexan-6-yl)-N-(3-fluorobicyclo[1.1.1]pentan-1-yl)propanamide] | 2520
